From article PMC3537913 (Clinical cancer research : an official journal of the …, 2012)
Structures can show the parent of a compound that is named as a salt.

Key:
clinical = conditions: human, in vivo, po, 50 mg/m2
[1] = once daily by mouth, in the combination
[2] = human, in vivo, po
[3] = in vivo, cited from earlier work
[4] = Sorafenib and sorafenib N-oxide steady-state plasma concentrations, course 1; format: in vivo, human; conditions: for concentration at 7 day / concentration at 13 day / concentration at 21 day: human, plasma, oral
[5] = pediatric phase I single agent study, cited from earlier work
[6] = Sorafenib first-dose pharmacokinetics in patients; format: in vivo, human; conditions: for CL/F (apparent oral clearance): first dose (day 1); for Ka: first dose; for Cmax / Tmax / half-life: human, plasma, po
[7] = system: circulating endothelial cells (CECs); test: Six-color flow cytometry of blood; format: in vivo, human; conditions: day 21, p = 0.01
[8] = single-agent sorafenib, mean; cited from earlier work
refractory solid tumors = conditions: cited from earlier work
[9] = sorafenib 90 mg/m^2 twice daily, n 13, median (range)
[10] = sorafenib 110 mg/m^2 twice daily, n 4, median (range)
[11] = sorafenib 90 mg/m^2 oral, n 11, median (range)
[12] = sorafenib 110 mg/m^2 oral, n 4, median (range)

Compound: O=P1(N(CCCl)CCCl)NCCCO1 (stereo not shown) [cyclophosphamide, Cyclophosphamide]
- AUC(0-inf) (clinical): 62.5 µM·h
- recommended phase II dose, cyclophosphamide [1]: 50 mg/m^2
- cyclophosphamide absorption rate constant [2]: 0.17 h⁻¹
- cyclophosphamide apparent volume of distribution ([2]; 50 mg/m2): 2.28 L/m^2
- clearance after intravenous administration in children ([3]; iv): 2.9-4.23 L/h/m^2
- mean apparent oral clearance in adults ([3]; po): 6.18 L/h
- published mean AUC at 600 mg/m^2 relative to median AUC of this study (12-fold higher oral dosage, ref 34 versus this study): ~ 11 times
- BSA normalized apparent oral clearance in adults (assuming average adult body surface area of 1.73 m^2, from ref 33): 3.57 L/h/m^2

Compound: CNC(=O)c1cc(Oc2ccc(NC(=O)Nc3ccc(Cl)c(C(F)(F)F)c3)cc2)cc[n+]1[O-] [sorafenib N-oxide]
- Sorafenib N-oxide Ctrough Day 7 [4, 9]: 0.50 (0.11 – 4.5) mg/L
- Sorafenib N-oxide Ctrough Day 13 [4, 9]: 0.54 (0.17 – 3.4) mg/L
- Sorafenib N-oxide Ctrough Day 7 [4, 10]: 0.57 (0.37 – 1.5) mg/L
- Sorafenib N-oxide Ctrough Day 13 [4, 10]: 0.37 (0.33 – 0.92) mg/L
- Sorafenib N-oxide Ctrough Day 21 [4, 10]: 0.40 (0.20 – 0.78) mg/L

Compound: CNC(=O)c1cc(Oc2ccc(NC(=O)Nc3ccc(Cl)c(C(F)(F)F)c3)cc2)ccn1 [sorafenib, Sorafenib tosylate]
- maximum tolerated dose (MTD) ([5]; twice daily): 200 mg/m^2
- Grade 3 DLTs [5]: elevated lipase, hyponatremia, hand-foot syndrome (HFS), rash, hypertension, and elevated ALT
- objective responses [5]: No objective responses were observed
- CL/F (apparent oral clearance) [6, 11]: 44 mL/min/m^2
- CL/F (apparent oral clearance) [6, 12]: 39 mL/min/m^2
- Ka [6, 11]: 0.10 (0.038 – 0.72) h^−1
- Ka [6, 12]: 0.093 (0.080 – 0.15) h^−1
- Cmax ([6]; 90 mg/m2): 1100 ng/mL
- Tmax ([6]; 90 mg/m2): 8.7 h
- half-life ([6]; 90 mg/m2): 5.5 h
- Cmax ([6]; 110 mg/m2): 1600 ng/mL
- Tmax ([6]; 110 mg/m2): 11 h
- half-life ([6]; 110 mg/m2): 10 h
- correlation of sorafenib steady-state concentrations with CECs [7]: inversely correlated
- concentration at 7 day ([4]; 90 mg/m^2 twice daily): 3500 ng/mL
- concentration at 13 day ([4]; 90 mg/m^2 twice daily): 2500 ng/mL
- concentration at 21 day ([4]; 90 mg/m^2 twice daily): 4800 ng/mL
- concentration at 7 day ([4]; 110 mg/m^2 twice daily): 3000 ng/mL
- concentration at 13 day ([4]; 110 mg/m^2 twice daily): 2100 ng/mL
- concentration at 21 day ([4]; 110 mg/m^2 twice daily): 1600 ng/mL
- metabolic conversion to sorafenib N-oxide, adult patients [8]: < 10%
- metabolic conversion to sorafenib N-oxide, children with AML [8]: 33%

Compound: bevacizumab: VEGF-specific recombinant, humanized monoclonal antibody
- dose-limiting toxicities (refractory solid tumors; in vivo): no dose-limiting toxicities (DLTs) were observed
- objective responses (refractory solid tumors; pediatric phase I, single agent): No objective responses were observed
